From US8563730B2, “Pyrazole and fused pyrazole glucokinase activators” (Takeda San Diego, Inc., priority 2008, dated 2013)
Where two headings read alike, the source gives them in different places.

Target: T1, GK (glucokinase, residues 12-465) (Homo sapiens, UniProt P35557)
T1 construct: I.D. No. 1 corresponds to residues 12-465 of glucokinase; made in house; host or cells: DH10b-T1r E. coli
T1 sequence (P35557 with tags, fused parts or gaps isoform P35557-2): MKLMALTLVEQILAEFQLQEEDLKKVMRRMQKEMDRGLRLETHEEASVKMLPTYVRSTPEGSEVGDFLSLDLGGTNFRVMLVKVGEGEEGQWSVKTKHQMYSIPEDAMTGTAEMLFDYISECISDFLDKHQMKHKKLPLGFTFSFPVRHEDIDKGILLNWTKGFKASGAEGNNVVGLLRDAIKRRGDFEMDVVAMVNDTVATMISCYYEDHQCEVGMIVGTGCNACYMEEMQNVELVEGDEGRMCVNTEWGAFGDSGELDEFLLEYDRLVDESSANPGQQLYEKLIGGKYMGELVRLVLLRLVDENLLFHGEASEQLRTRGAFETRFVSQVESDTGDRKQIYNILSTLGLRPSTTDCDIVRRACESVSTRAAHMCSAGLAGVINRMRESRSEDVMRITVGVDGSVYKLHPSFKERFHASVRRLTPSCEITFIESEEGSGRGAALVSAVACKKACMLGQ
Assay: enzymatic glucokinase activity assay (ATP consumption, KinaseGlo luminescence)
Assay type: biochemical
Conditions: 5 μM ATP, 5 mM Glucose, reported as bins; for EC50: Kact = concentration that displays 50% of the maximal increase in GK activity, 60 min, room temperature, read-out: pKact
Method in brief: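 E. coli-expressed recombinant GK purified by two anion-exchange steps. Reaction in 25 mM Hepes pH 7.2, 10 mM MgCl2, 1 mM DTT, 5 μM ATP, 5 mM glucose, 2% DMSO, 60 min at room temperature. ATP consumption quantified by KinaseGlo luminescence; pKact and % ACTmax derived by non-linear curve fitting.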

[1] = calculated maximal gain in GK enzyme activity at a saturating concentration of the compound, read-out: % ACTmax
[2] = read-out: % ACTmax, calculated maximal gain in GK enzyme activity at a saturating concentration of the compound

SMILES	EC50 [µM]	Emax [1] [%]	Emax [2] [%]
CS(=O)(=O)n1ccc(NC(=O)C(CC2CCOCC2)n2ncc3c(S(=O)(=O)C4CC4)cccc32)n1 (stereo not shown) [Compound 146, 2-(4-(cyclopropylsulfonyl)-1H-indazol-1-yl)-N-(1-(methylsulfonyl)-1H-pyrazol-3-yl)-3-(tetrahydro-2H-pyran-4-yl)propanamide]	3.98 to 12.6	≤ 90	–
COc1ccc2nc(NC(=O)[C@@H](CC3CCOCC3)n3ccc(S(=O)(=O)C4CC4)n3)sc2n1 [Compound 3, (R)-2-(3-(cyclopropylsulfonyl)-1H-pyrazol-1-yl)-N-(5-methoxythiazolo[5,4-b]pyridin-2-yl)-3-(tetrahydro-2H-pyran-4-yl)propanamide]	≥ 15.8	≤ 90	–
O=C(Nc1ncc(Cl)s1)C(CC1CCOCC1)n1ncc2ccc(S(=O)(=O)C3CC3)cc21 (stereo not shown) [Compound 60, N-(5-chlorothiazol-2-yl)-2-(6-(cyclopropylsulfonyl)-1H-indazol-1-yl)-3-(tetrahydro-2H-pyran-4-yl)propanamide]	≥ 15.8	≤ 90	–
COc1cc(S(=O)(=O)C2CC2)c2cnn(C(CC3CCOCC3)C(=O)Nc3ncc(F)s3)c2c1 (stereo not shown) [Compound 72, 2-(4-(cyclopropylsulfonyl)-6-methoxy-1H-indazol-1-yl)-N-(5-fluorothiazol-2-yl)-3-(tetrahydro-2H-pyran-4-yl)propanamide]	≤ 0.316	≤ 90	–
O=C(Nc1ncc(Cl)s1)[C@@H](CC1CCOCC1)n1ncc2c(S(=O)(=O)C3CC3)cccc21 [Compound 63, (R)-N-(5-chlorothiazol-2-yl)-2-(4-(cyclopropylsulfonyl)-1H-indazol-1-yl)-3-(tetrahydro-2H-pyran-4-yl)propanamide]	3.98 to 12.6	≥ 111	–
O=C(Nc1ncc(F)s1)[C@@H](CC1CCOCC1)n1ncc2c(S(=O)(=O)C3CC3)cncc21 [Compound 85, (R)-2-(4-(cyclopropylsulfonyl)-1H-pyrazolo[3,4-c]pyridin-1-yl)-N-(5-fluorothiazol-2-yl)-3-(tetrahydro-2H-pyran-4-yl)propanamide]	1.58 to 3.16	–	90 to 100
O=C(O)c1cnc(NC(=O)C(CC2CCCC2)n2cc(S(=O)(=O)C3CC3)cn2)s1 (stereo not shown) [Compound 7, 2-(3-cyclopentyl-2-(4-(cyclopropylsulfonyl)-1H-pyrazol-1-yl)propanamido)thiazole-5-carboxylic Acid]	3.98 to 12.6	≤ 90	–
Cn1ccc(NC(=O)C(CC2CCOCC2)n2ncc3c(S(=O)(=O)C4CC4)cc(N)nc32)n1 (stereo not shown) [Compound 170, 2-(6-amino-4-(cyclopropylsulfonyl)-1H-pyrazolo[3,4-b]pyridin-1-yl)-N-(1-methyl-1H-pyrazol-3-yl)-3-(tetrahydro-2H-pyran-4-yl)propanamide]	≥ 15.8	≤ 90	–
O=C(Nc1ncc(Cl)s1)[C@H](CC1CCOCC1)n1cc(S(=O)(=O)C2CC2)cn1 [Compound 42, (S)-N-(5-chlorothiazol-2-yl)-2-(4-(cyclopropylsulfonyl)-1H-pyrazol-1-yl)-3-(tetrahydro-2H-pyran-4-yl)propanamide]	1.58 to 3.16	≥ 111	–
NC(=O)c1ccc(NC(=O)C(CC2CCOCC2)n2ncc3c(S(=O)(=O)C4CC4)cccc32)nc1 (stereo not shown) [Compound 14, 6-(2-(4-(cyclopropylsulfonyl)-1H-indazol-1-yl)-3-(tetrahydro-2H-pyran-4-yl)propanamido)nicotinamide]	≤ 0.316	≥ 111	–
Nc1cc(S(=O)(=O)C2CC2)c2cnn([C@@H](CC3CCOCC3)C(=O)Nc3cnccn3)c2n1 [Compound 164, (S)-2-(6-amino-4-(cyclopropylsulfonyl)-1H-pyrazolo[3,4-b]pyridin-1-yl)-N-(pyrazin-2-yl)-3-(tetrahydro-2H-pyran-4-yl)propanamide]	0.398 to 1.26	106 to 110	–
Cn1ccc(NC(=O)[C@@H](CC2CCOCC2)n2ncc3c(S(=O)(=O)C4CC4)cncc32)n1 [Compound 160, (R)-2-(4-(cyclopropylsulfonyl)-1H-pyrazolo[3,4-c]pyridin-1-yl)-N-(1-methyl-1H-pyrazol-3-yl)-3-(tetrahydro-2H-pyran-4-yl)propanamide]	3.98 to 12.6	90 to 100	–
O=C1CCC(CC(C(=O)Nc2ncc(F)s2)n2cc(S(=O)(=O)C3CC3)cn2)C1 (stereo not shown) [Compound 50, 2-(4-(cyclopropylsulfonyl)-1H-pyrazol-1-yl)-N-(5-fluorothiazol-2-yl)-3-(3-oxocyclopentyl)propanamide]	≥ 15.8	≤ 90	–
COc1ccc2c(cnn2C(CC2CCOCC2)C(=O)Nc2ccn(C)n2)c1S(=O)(=O)C1CC1 (racemic) [Compound 15, 2-(4-(cyclopropylsulfonyl)-5-methoxy-1H-indazol-1-yl)-N-(1-methyl-1H-pyrazol-3-yl)-3-(tetrahydro-2H-pyran-4-yl)propanamide]	0.398 to 1.26	90 to 100	–
O=C(Nc1cnccn1)C(CC1CCOCC1)n1cc2c(S(=O)(=O)C3CC3)cncc2n1 (stereo not shown) [Compound 169, 2-(4-(cyclopropylsulfonyl)-2H-pyrazolo[3,4-c]pyridin-2-yl)-N-(pyrazin-2-yl)-3-(tetrahydro-2H-pyran-4-yl)propanamide]	≥ 15.8	≤ 90	–
COc1cc(S(=O)(=O)C2CC2)c2cnn([C@@H](CC3CCOCC3)C(=O)Nc3ncc(F)s3)c2c1 [Compound 128, (S)-2-(4-(cyclopropylsulfonyl)-6-methoxy-1H-indazol-1-yl)-N-(5-fluorothiazol-2-yl)-3-(tetrahydro-2H-pyran-4-yl)propanamide]	≤ 0.316	90 to 100	–
O=C(Nc1ncc(F)s1)[C@H](CC1CCOCC1)n1ncc2c(S(=O)(=O)C3CC3)ccnc21 [Compound 138, (S)-2-(4-(cyclopropylsulfonyl)-1H-pyrazol[3,4-b]pyridin-1-yl)-N-(5-fluorothiazol-2-yl)-3-(tetrahydro-2H-pyran-4-yl)propanamide]	0.398 to 1.26	90 to 100	–
COc1ccc2nc(NC(=O)C(CC3CCOCC3)n3cc(S(=O)(=O)C4CC4)cn3)sc2n1 (stereo not shown) [Compound 24, 2-(4-(cyclopropylsulfonyl)-1H-pyrazol-1-yl)-N-(5-methoxythiazolo[5,4-b]pyridin-2-yl)-3-(tetrahydro-2H-pyran-4-yl)propanamide]	≥ 15.8	≤ 90	–
O=C(Nc1cnccn1)C(CC1CCOCC1)n1cc2c(S(=O)(=O)C3CC3)c(F)ccc2n1 (stereo not shown) [Compound 156, 2-(4-(cyclopropylsulfonyl)-5-fluoro-2H-indazol-2-yl)-N-(pyrazin-2-yl)-3-(tetrahydro-2H-pyran-4-yl)proanamide]	≤ 0.316	101 to 105	–
O=C1CC[C@H](C[C@H](C(=O)Nc2cnccn2)n2ncc3c(S(=O)(=O)C4CC4)cccc32)C1 [Compound 75, (R)-2-(4-(cyclopropylsulfonyl)-1H-indazol-1-yl)-3-((R)-3-oxocyclopentyl)-N-(pyrazin-2-yl)propanamide]	0.398 to 1.26	90 to 100	–
Cn1ccc(NC(=O)[C@H](CC2CCOCC2)n2ncc3c(S(=O)(=O)C4CC4)c(F)ccc32)n1 [Compound 165, (S)-2-(4-(cyclopropylsulfonyl)-5-fluoro-1H-indazol-1-yl)-N-(1-methyl-1H-pyrazol-3-yl)-3-(tetrahydro-2H-pyran-4-yl)propanamide]	≤ 0.316	90 to 100	–
Cc1ccc2c(cnn2C(CC2CCOCC2)C(=O)Nc2cnccn2)c1S(=O)(=O)C1CC1 (stereo not shown) [Compound 157, 2-(4-(cyclopropylsulfonyl)-5-methyl-1H-indazol-1-yl)-N-(pyrazin-2-yl)-3-(tetrahydro-2H-pyran-4-yl)propanamide]	0.398 to 1.26	≥ 111	–
O=C(Nc1ncc(F)s1)[C@H](CC1CCOCC1)n1ncc2c(S(=O)(=O)C3CC3)cccc21 [Compound 69, (S)-2-(4-(cyclopropylsulfonyl)-1H-indazol-1-yl)-N-(5-fluorothiazol-2-yl)-3-(tetrahydro-2H-pyran-4-yl)propanamide]	≤ 0.316	106 to 110	–
O=C(Nc1ncc(F)s1)C(CC1CCOCC1)n1ncc2c(S(=O)(=O)C3CC3)cc(Cl)cc21 (stereo not shown) [Compound 121, 2-(6-chloro-4-(cyclopropylsulfonyl)-1H-indazol-1-yl)-N-(5-fluorothiazol-2-yl)-3-(tetrahydro-2H-pyran-4-yl)propanamide]	≤ 0.316	90 to 100	–
O=C(Nc1ncc(F)s1)C(CC1CCOCC1)n1ncc2c(S(=O)(=O)C3CC3)c(O)ccc21 (stereo not shown) [Compound 144, 2-(4-(cyclopropylsulfonyl)-5-hydroxy-1H-indazol-1-yl)-N-(5-fluorothiazol-2-yl)-3-(tetrahydro-2H-pyran-4-yl)propanamide]	≤ 0.316	106 to 110	–
O=C(NC1CC1)c1nn(C(CC2CCOCC2)C(=O)Nc2ncc(Cl)s2)cc1Cl (stereo not shown) [Compound 8, 4-chloro-1-(1-(5-chlorothiazol-2-ylamino)-1-oxo-3-(tetrahydro-2H-pyran-4-yl)propan-2-yl)-N-cyclopropyl-1H-pyrazole-3-carboxamide]	3.98 to 12.6	–	≤ 90
